Test results reported in ChEMBL document CHEMBL5465560, “Selectivity Literature for EUbOPEN Chemogenomic Library” (2024).

Legend:
[1] = biological target: Protein-tyrosine kinase 6 (Homo sapiens, UniProt Q13882); experiment: Selectivity interaction (KinomeScan (DiscoverX)) EUB0001049a PTK6; conditions: at 1 µM
[2] = biological target: Serine/threonine-protein kinase SMG1 (Homo sapiens) (UniProt Q96Q15); experiment: Selectivity interaction (Kinase panel (KiNativ target engagement assay in Jurkat cells)) EUB0001635a SMG1; format: cell-based; conditions: Selectivity number of off-targets 0.0, Selectivity number of targets 233.0, Source Knowledge https://www.sciencedirect.com/science/article/pii/S2451945619300674?via%3Dihub, at 1 µM
[3] = biological target: Mitogen-activated protein kinase 10 (Homo sapiens, UniProt P53779); experiment: Selectivity interaction (Kinase panel (DSF assay)) EUB0001559a MAPK10
[4] = biological target: Insulin receptor-related protein (Homo sapiens) (UniProt P14616); experiment: Selectivity interaction (Kinase panel (Invitrogen)) EUB0000639a INSRR; conditions: at 200 nM
[5] = biological target: Ribosomal protein S6 kinase alpha-6 (Homo sapiens, UniProt Q9UK32); experiment: Selectivity interaction (Kinase panel (Invitrogen)) EUB0000639a RPS6KA6; conditions: at 200 nM
[6] = biological target: T1, Serine/threonine-protein kinase RIO1 (Homo sapiens) (UniProt Q9BRS2); experiment: Selectivity interaction (KinomeScan (DiscoverX)) EUB0000092b RIOK1; conditions: at 10 µM
T1 sequence (whole entry): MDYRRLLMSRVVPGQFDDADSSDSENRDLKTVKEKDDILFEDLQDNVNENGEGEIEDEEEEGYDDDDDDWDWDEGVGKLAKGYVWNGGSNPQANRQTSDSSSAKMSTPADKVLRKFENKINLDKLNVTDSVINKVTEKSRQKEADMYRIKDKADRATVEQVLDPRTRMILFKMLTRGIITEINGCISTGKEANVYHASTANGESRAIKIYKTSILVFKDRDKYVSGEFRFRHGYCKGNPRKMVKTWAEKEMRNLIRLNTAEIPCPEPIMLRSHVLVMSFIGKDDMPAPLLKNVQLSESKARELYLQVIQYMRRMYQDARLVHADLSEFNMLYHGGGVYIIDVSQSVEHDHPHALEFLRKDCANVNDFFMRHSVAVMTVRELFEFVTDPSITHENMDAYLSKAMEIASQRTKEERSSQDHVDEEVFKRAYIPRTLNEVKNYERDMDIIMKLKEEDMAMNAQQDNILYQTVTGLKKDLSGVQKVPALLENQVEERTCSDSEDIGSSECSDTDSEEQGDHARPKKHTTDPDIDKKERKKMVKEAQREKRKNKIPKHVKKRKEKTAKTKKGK

[7] = biological target: Casein kinase I isoform gamma-1 (Homo sapiens) (UniProt Q9HCP0); experiment: Selectivity interaction (Ambit KINOMEscan and KiNATiv profiling in Jurkat cells) EUB0000090b CSNK1G1; format: cell-based; conditions: at 1 µM
[8] = biological target: Receptor tyrosine-protein kinase erbB-4 (Homo sapiens, UniProt Q15303); experiment: Selectivity interaction (Ambit KINOMEscan and KiNATiv profiling in Jurkat cells) EUB0000090b ERBB4; format: cell-based; conditions: at 1 µM
Chain of Receptor tyrosine-protein kinase erbB-4 (Q15303 whole entry): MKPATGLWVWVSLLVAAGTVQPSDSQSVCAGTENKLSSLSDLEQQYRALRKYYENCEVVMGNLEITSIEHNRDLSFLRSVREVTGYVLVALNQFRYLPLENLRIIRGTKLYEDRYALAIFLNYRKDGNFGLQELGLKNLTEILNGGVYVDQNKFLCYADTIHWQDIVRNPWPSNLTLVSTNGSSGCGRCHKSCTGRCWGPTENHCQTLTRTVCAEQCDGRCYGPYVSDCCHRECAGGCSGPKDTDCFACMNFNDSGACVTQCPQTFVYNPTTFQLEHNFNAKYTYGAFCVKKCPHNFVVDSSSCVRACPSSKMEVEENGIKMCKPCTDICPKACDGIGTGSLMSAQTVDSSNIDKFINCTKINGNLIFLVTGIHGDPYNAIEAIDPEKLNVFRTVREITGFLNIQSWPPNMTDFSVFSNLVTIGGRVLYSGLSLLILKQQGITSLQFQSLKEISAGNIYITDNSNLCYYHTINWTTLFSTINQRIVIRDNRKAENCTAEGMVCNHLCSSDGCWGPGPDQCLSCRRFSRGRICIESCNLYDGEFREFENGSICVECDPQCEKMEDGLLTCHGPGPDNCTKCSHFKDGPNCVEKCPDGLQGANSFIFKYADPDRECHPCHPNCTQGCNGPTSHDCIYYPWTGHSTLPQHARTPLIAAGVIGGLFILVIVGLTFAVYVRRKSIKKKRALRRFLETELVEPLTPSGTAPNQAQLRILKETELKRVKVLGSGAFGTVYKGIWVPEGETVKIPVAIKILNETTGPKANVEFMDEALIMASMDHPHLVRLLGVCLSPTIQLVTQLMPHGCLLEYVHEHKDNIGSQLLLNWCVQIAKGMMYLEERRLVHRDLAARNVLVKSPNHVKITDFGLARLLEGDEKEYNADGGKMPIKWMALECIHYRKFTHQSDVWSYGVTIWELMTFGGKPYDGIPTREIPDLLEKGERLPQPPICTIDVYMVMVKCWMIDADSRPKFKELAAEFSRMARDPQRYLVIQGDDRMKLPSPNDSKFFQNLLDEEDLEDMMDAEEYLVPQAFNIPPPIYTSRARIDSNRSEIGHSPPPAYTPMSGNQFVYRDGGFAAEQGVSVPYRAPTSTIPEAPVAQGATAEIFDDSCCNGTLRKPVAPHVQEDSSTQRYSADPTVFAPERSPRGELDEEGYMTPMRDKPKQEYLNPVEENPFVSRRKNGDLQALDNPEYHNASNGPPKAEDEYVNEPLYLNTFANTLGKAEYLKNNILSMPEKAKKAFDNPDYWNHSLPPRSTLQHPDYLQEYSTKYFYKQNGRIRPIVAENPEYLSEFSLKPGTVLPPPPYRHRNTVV

[9] = biological target: Dual specificity testis-specific protein kinase 1 (Homo sapiens) (UniProt Q15569); experiment: Selectivity interaction (Ambit KINOMEscan and KiNATiv profiling in Jurkat cells) EUB0000090b TESK1; format: cell-based; conditions: at 1 µM
[10] = biological target: Fibroblast growth factor receptor 1 (Homo sapiens, UniProt P11362); experiment: Selectivity interaction (KinomeScan (DiscoverX)) EUB0000045b FGFR1
Chain of Fibroblast growth factor receptor 1 (P11362 22-822 limits assumed): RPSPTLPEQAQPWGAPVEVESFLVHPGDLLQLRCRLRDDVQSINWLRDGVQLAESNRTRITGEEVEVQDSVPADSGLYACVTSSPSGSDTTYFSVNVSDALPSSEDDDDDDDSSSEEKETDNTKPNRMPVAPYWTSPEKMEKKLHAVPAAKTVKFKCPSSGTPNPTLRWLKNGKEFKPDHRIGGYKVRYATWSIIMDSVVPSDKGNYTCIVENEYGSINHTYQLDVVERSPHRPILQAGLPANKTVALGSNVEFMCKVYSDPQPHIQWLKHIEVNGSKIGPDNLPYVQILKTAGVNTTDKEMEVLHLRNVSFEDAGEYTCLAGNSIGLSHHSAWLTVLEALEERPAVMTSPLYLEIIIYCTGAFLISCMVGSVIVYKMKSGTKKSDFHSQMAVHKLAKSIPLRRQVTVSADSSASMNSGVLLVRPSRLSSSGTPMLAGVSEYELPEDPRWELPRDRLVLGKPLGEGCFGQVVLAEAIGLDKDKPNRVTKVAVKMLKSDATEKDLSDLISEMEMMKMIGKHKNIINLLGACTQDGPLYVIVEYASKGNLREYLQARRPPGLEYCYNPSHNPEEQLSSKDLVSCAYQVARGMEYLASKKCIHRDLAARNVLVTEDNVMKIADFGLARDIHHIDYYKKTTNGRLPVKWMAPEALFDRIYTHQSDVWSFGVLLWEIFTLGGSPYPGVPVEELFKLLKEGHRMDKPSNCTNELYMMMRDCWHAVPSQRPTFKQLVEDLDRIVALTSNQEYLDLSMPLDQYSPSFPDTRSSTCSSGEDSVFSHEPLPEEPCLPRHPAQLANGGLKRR

[11] = biological target: T2, Serine/threonine-protein kinase D2 (Homo sapiens) (UniProt Q9BZL6); experiment: Selectivity interaction (KinomeScan (DiscoverX)) EUB0001619a PRKD2; conditions: at 1 µM
T2 sequence (whole entry): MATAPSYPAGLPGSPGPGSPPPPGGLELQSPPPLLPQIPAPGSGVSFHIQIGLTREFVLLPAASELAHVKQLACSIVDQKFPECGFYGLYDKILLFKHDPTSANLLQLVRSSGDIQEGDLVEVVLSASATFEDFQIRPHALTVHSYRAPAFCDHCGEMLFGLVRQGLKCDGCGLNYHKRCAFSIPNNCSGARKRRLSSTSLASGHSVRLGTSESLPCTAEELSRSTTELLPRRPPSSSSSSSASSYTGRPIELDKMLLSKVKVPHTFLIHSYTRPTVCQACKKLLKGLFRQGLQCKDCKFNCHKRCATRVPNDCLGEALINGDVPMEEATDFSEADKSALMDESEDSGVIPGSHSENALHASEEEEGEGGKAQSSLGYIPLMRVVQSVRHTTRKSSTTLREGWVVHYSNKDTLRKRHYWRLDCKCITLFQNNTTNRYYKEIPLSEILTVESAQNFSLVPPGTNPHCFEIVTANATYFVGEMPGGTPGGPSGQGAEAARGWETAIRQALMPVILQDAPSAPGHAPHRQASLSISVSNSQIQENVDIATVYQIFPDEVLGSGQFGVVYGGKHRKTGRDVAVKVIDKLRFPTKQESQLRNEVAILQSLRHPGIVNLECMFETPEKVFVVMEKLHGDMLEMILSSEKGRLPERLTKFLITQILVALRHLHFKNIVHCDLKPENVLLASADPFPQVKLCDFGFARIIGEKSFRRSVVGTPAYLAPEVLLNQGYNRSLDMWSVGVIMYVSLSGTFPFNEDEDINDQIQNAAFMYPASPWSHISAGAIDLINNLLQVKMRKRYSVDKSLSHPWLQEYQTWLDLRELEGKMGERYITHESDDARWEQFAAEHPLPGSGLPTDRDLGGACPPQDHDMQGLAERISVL

[12] = biological target: Calcium/calmodulin-dependent protein kinase type II subunit delta (Homo sapiens) (UniProt Q13557); experiment: Selectivity interaction (ActivX KiNativ screen (ex vivo kinase selectivity in human PBMCs)) EUB0001619a CAMK2D; format: cell-based; conditions: PBMC, at 1 µM
[13] = biological target: Vascular endothelial growth factor receptor 2 (Homo sapiens, UniProt P35968); experiment: Selectivity interaction (KinomeScan (DiscoverX)) EUB0000695a KDR; conditions: at 100 nM
[14] = biological target: STE20/SPS1-related proline-alanine-rich protein kinase (Homo sapiens) (UniProt Q9UEW8); experiment: Selectivity interaction (KinomeScan (DiscoverX)) EUB0000695a STK39; conditions: at 100 nM
[15] = biological target: BDNF/NT-3 growth factors receptor (Homo sapiens) (UniProt Q16620); experiment: Selectivity interaction (SelectScreen profiling (Invitrogen)) EUB0000607a NTRK2; conditions: at 2 µM
[16] = biological target: Serine/threonine-protein kinase SBK1 (Homo sapiens) (UniProt Q52WX2); experiment: Selectivity interaction (Kinase panel (Z-LYTE Assay)) EUB0001632a SBK1; conditions: at 10 µM
Chain of Serine/threonine-protein kinase SBK1 (Homo sapiens) (Q52WX2 whole entry): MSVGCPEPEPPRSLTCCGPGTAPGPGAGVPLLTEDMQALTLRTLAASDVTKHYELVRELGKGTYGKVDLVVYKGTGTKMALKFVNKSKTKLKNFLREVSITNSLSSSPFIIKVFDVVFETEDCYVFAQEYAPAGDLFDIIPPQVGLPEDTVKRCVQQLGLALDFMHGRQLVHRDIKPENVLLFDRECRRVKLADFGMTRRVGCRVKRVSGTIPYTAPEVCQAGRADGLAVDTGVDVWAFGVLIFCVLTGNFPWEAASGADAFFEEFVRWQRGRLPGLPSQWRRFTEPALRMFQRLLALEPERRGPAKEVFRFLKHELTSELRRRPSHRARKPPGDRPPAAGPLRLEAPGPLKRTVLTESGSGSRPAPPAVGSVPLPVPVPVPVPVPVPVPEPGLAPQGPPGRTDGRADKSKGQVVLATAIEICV

[17] = biological target: Cyclin-dependent kinase 1/cyclin B1 (Homo sapiens) (UniProt P06493+P14635); experiment: (§1) Selectivity interaction (ProQinase) EUB0000171b CDK1; format: protein-complex assay
Chain of Cyclin-dependent kinase 1/cyclin B1 (Homo sapiens) (P06493 whole entry, looked up): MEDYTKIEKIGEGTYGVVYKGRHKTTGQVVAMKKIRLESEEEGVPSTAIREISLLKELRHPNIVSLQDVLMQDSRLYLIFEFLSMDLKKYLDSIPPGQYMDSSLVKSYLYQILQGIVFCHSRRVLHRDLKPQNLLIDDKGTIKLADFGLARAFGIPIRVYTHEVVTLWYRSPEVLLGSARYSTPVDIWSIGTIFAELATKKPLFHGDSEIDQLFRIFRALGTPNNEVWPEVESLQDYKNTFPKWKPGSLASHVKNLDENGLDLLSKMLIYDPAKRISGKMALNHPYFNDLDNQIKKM
Chain of Cyclin-dependent kinase 1/cyclin B1 (Homo sapiens) (P14635 whole entry, looked up): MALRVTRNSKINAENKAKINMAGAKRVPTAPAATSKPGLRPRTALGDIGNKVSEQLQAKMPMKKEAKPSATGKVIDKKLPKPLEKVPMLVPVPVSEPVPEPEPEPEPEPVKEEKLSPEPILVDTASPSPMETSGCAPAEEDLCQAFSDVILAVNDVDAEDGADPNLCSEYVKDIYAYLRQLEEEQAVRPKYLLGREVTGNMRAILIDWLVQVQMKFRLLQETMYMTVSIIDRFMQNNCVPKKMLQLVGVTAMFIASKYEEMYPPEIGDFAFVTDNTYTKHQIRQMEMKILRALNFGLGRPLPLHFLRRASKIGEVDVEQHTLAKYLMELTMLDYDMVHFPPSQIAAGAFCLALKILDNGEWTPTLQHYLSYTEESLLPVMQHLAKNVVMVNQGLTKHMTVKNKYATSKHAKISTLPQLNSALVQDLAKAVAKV

[18] = biological target: CDK1/Cyclin A (Homo sapiens) (UniProt P06493+P20248); experiment: as §1; format: protein-complex assay
Chain of CDK1/Cyclin A (Homo sapiens) (P06493 whole entry, looked up): as the sequence (P06493 whole entry, looked up) above
Chain of CDK1/Cyclin A (Homo sapiens) (P20248 whole entry, looked up): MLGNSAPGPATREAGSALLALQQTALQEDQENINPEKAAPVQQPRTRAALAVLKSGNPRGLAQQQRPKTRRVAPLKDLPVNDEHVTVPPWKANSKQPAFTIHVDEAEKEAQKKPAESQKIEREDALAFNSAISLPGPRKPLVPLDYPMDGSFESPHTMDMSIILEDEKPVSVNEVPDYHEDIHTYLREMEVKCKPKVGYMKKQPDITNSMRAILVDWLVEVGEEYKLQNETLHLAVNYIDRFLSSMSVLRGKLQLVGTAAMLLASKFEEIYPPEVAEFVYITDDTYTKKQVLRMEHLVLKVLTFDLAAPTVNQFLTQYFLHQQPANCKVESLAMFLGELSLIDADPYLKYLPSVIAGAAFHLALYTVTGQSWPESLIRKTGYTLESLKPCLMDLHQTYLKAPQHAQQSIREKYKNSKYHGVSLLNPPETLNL

[19] = biological target: CDK1/Cyclin E (Homo sapiens) (UniProt P06493+P24864); experiment: as §1; format: protein-complex assay
Chain of CDK1/Cyclin E (Homo sapiens) (P06493 whole entry, looked up): as the sequence (P06493 whole entry, looked up) above
Chain of CDK1/Cyclin E (Homo sapiens) (P24864 whole entry, looked up): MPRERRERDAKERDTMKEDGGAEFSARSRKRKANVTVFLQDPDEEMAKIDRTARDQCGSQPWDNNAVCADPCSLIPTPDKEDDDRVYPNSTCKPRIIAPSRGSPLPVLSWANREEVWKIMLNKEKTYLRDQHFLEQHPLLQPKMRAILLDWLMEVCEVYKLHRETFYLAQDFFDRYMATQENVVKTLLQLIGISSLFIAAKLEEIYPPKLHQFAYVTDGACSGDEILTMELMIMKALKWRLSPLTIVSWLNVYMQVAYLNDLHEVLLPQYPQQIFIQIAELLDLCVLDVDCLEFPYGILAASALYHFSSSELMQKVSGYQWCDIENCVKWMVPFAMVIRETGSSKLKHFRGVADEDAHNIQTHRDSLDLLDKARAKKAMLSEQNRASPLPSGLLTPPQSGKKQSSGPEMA

Compound `COc1cc(Nc2nc(C)cc(-c3cnn4nc(OC)ccc34)n2)cc(C(F)(F)F)c1` has a % of control [1] of 100%.

Compound `C=CC(=O)Nc1ccc(C(=O)Nc2[nH]nc3c2CN(C(=O)N[C@H](CN(C)C)c2ccccc2)C3(C)C)cc1` has a % of engagement [2] of -4.6%.

`CN(C(=O)c1cnn2cccnc12)c1cc2c(cc1N1CCOCC1)C(=O)N(C[C@@H](F)C(C)(C)O)C2` gave a dTM [3] of -0.8 K.

`CC[C@@H]1[C@H](F)C(=O)N[C@@H]1COc1nccc2cc(C(N)=O)c(OC)cc12` [ZIMLOVISERTIB] showed a % of inhibition [4] of 2.97% and a % of inhibition [5] of -1.29%.

Compound `CCC(=O)N1CCN(c2ccc(-n3c(=O)ccc4cnc5ccc(-c6cnc7ccccc7c6)cc5c43)cc2C(F)(F)F)CC1` has a % of control [6] of 81%.

`CN(C)C/C=C/C(=O)Nc1ccc(C(=O)N2CCCC(Nc3ncc(Cl)c(-c4c[nH]c5ccccc45)n3)C2)cc1` (stereo not drawn) was tested, and the % of control [7] was 94%, the % of control [8] was 96% and the % of control [9] was 86%.

Work on `C=CC(=O)Nc1cc(-n2c(=O)ccc3cnc4ccc(-c5ccc(NS(C)(=O)=O)cc5)cc4c32)ccc1C` yielded a % of control ([10]; at 1 µM) of 92% and a % of control ([10]; at 10 µM) of 98%.

For `N#Cc1cccc(-c2c[nH]c3ncnc(N4CCOCC4)c23)c1`, the % of control [11] was 100% and the % of inhibition [12] was -38%.

`Cc1cc(F)c(C(=O)Nc2cccc(-c3nncn3C(C)C)n2)cc1-n1cnc(C2CC2)c1` gave a % of control [13] of 100% and a % of control [14] of 79%.

Compound `CNC(=O)Nc1ccc(-c2nc(N3CC4CCC(C3)O4)c3cnn(C4CCC5(CC4)OCCO5)c3n2)cc1` has a % of inhibition [15] of 1%.

`Cn1cc(-n2cnc3c(NCc4nc5cc(Cl)c(Cl)cc5[nH]4)nc(N4CCOCC4)nc32)cn1` was tested, and the % of control [16] was -0.405%.

Compound `C=CC(=O)Nc1cccc(C(=O)Nc2ccc(Nc3cc(-c4[nH]c(SC)nc4C)ccn3)cc2)c1` has a % of control ([17]; at 1 µM) of 94%, a % of control ([17]; at 5 µM) of 77% and a % of control ([18]; at 1 µM) of 89%. The % of control ([18]; at 5 µM) was 79%, the % of control ([19]; at 1 µM) was 90% and the % of control ([19]; at 5 µM) was 74%.
